Where no end group is shown, it is not given here. [ ]: non-standard residue; d: D form. The star is where a group is joined. Phe(4-Cl) = N[C@@H](Cc1ccc(Cl)cc1)C(=O)O; dPhe(4-Cl) = N[C@H](Cc1ccc(Cl)cc1)C(=O)O; dPhe(4-F) = N[C@H](Cc1ccc(F)cc1)C(=O)O; 2Nal = N[C@@H](Cc1ccc2ccccc2c1)C(=O)O; d2Nal = N[C@H](Cc1ccc2ccccc2c1)C(=O)O; Fmoc = O=C(OCC1c2ccccc2-c2ccccc21)*; 2Thi = N[C@@H](Cc1cccs1)C(=O)O
Key:
[1] = biological target: full length XIAP (Homo sapiens, UniProt P98170); test: SMAC competition assay: rhodamine labeled SMAC tetrapeptide AVPI and full length XIAP; details: for EC50: amount of compound necessary to restore Caspase-3 activity to 50% of Vmax; for Relative Potency: fold relative to SMAC AVPI tetrapeptide
full length XIAP, sequence (P98170 whole entry): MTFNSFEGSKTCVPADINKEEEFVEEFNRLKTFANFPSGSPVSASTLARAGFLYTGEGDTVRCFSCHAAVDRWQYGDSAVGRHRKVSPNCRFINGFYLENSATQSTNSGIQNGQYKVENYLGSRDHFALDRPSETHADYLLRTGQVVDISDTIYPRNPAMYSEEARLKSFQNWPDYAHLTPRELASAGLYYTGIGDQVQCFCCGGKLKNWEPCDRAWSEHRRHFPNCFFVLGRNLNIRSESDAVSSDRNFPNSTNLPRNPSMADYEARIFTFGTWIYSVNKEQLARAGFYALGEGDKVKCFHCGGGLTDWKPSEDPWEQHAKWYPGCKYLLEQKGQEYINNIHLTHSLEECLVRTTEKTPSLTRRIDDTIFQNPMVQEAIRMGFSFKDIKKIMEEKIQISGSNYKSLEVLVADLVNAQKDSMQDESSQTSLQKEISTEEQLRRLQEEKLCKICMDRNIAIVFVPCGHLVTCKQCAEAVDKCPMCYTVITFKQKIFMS

[2] = tested on: normal bone marrow mononuclear cells; test: Toxicity to normal bone marrow mononuclear cells, Annexin V flow cytometry; type: cell-based; details: same culture conditions as Jurkat killing; 5 μM, 20 hours
Method: A comparison of the effects of TPI1396-34 on normal bone marrow cells versus Jurkat leukemia cells was performed as follows. TPI1396-34 (5 μM) was incubated with Jurkat cells or normal bone marrow mononuclear cells (6.25×10^5/mL) in RPMI and 2.5% FBS for 20 hours. After incubation, cells were washed, stained with FITC-conjugated Annexin V antibody and propidium iodide, and fluorescence measured by flow cytometry as described above.

[3] = tested on: HeLa cells; test: Apoptosis in HeLa cells transfected with XIAP, XIAP mutants or Bcl-XL, Annexin V; type: cell-based; details: 5 μM, 20 hours
Method: In addition to transfecting the cells with full-length XIAP, analogous assays were performed with HeLa cells transfected with plasmids over-expressing various XIAP mutants. […] The mutant was produced by site-directed mutagenesis to modify positions 148, 219, 223, 314 and 323 to contain alanine. HeLa cells were also transiently transfected with plasmids encoding Bcl-XL, an anti-apoptotic protein that operates upstream of Caspases to suppress Cytochrome C release from mitochondria. HeLa cells (2.5×10^5) were seeded onto six well plates in 2 mL DMEM H21 with 5% FBS. After 24 hrs, cells were transfected (Gene Porter) with plasmids. At 48 hrs after transfection, cells were treated with 5 μM of TPI1396-34 for 20 hours. Both floating and adherent cells were then recovered from cultures, washed, and apoptosis was determined by Annexin V staining using flow cytometry.

[4] = tested on: U937 leukemia cells (U937-Neo, U937-XIAP); test: Apoptosis in U937 cells transfected with Neo-control or XIAP plasmid; type: cell-based; details: U937-XIAP vs U937-Neo, 5 or 8 μM, 20 hours
Method: After incubation, cells were washed, stained with FITC-conjugated Annexin V antibody and propidium iodide, and fluorescence measured by flow cytometry as described in Example X.

[5] = tested on: ALVA31 prostate cancer cells; test: ALVA31 cell viability (XTT dye-reduction and trypan blue dye exclusion); type: cell-based; details: IAP antagonist 40 μM or VP-16 100 μM, 24 hrs
Method: The in vivo effects of TPI792-33 or TPI792-35, either individually or in combination with the cytotoxic anticancer drug VP-16 (etoposide), on derepression of XIAP-inhibited caspase and viability of ALVA31 cells was determined as follows. ALVA31 prostate cancer cells were seeded onto 96 well plates (10^4 cells/well) in 100 μL RPMI containing 2.5% fetal bovine serum (FBS). […] After another 24 hrs incubation, cell viability was measured by the XTT dye-reduction assay (Roche, Molecular Biochemicals; Indianapolis, Ind.) and trypan blue dye exclusion assay.

[6] = biological target: XIAP-inhibited caspase-3 (Homo sapiens, UniProt P98170); test: IAP derepression assay: Ac-DEVD-AFC hydrolysis by caspase-3 in presence of GST-XIAP; type: biochemical; details: tested at 0.4, 2, 10 and 50 micrograms per milliliter
XIAP-inhibited caspase-3, sequence (P98170 whole entry): as above
Method: Caspase activity was assayed by release of −7-amino-4-trifluoromethyl-coumarin (AFC) from Ac-DEVD-AFC synthetic peptides using a Molecular Devices Spectromax 340 (see Zhou et al., J. Biol. Chem. 272: 7797-7800 (1997)). […] The ratio of Vmax for hydrolysis of Ac-DEVD-AFC in the presence and absence of the candidate mixture was calculated and used to identify those that contain an agent that derepresses an IAP-inhibited caspase.
Screening of each mixture from the DCR390, TPI1239 or TPI1328 library, respectively, using the above described assay was carried out as follows. Each mixture was aliquoted in a 25 microliter volume and in duplicate to a well of a 96 well microtiter plate. […] Fluorescence of liberated AFC was immediately detected from each well for 30 minutes at 30 second intervals. The Vmax for hydrolysis of AC-DEVD-AFC from each well was measured using the softmax software package.

[7] = Jurkat cell killing, Annexin V / propidium iodide flow cytometry; type: cell-based; details: human
Method: The following assay was used to test the ability of individual compounds from the TPI1396 and TPI1391 libraries to induce apoptosis of cultured tumor cell lines. Each of the compounds listed in Table IX was individually added to Jurkat leukemia cells (6.25×10^5 cells/mL) in RPMI containing 2.5% FBS at various concentrations for 20 hours. After incubation, cells were washed and stained with FITC-conjugated Annexin V antibody and propidium iodide (Biovision; Mountain View, Calif.). Cells were incubated for 20 minutes at room temperature in the dark and fluorescence was measured by flow cytometry (FACScan, Immunocytometry system; Becton-Dickinson; San Jose, Calif.). Cells staining positive for Annexin V were deemed non-viable.
The TPI1396-34 and TPI1391-28 compounds were further tested as set forth below.

[8] = biological target: caspase-3 and -7; details: read-out: Ki for inhibition of caspase-3 and -7; reported; cited from earlier work

In the case of `CCCCCCCN1C(=O)C(=O)N([C@H](CCCC)CNCc2ccccc2)C[C@@H]1Cc1ccc2ccccc2c1` [TPI1391-21], the EC50 [1] is reported as 37 µM and the “Relative Potency” value [1] is reported as 3.4.
For `CC(C)C[C@@H]1CN([C@H](CNCc2ccccc2)Cc2ccc3ccccc3c2)C(=O)C(=O)N1CCc1cccc(C(F)(F)F)c1` [TPI1391-28], the “toxicity to normal bone marrow cells” value [2] was “little toxicity” and the “Relative Potency” value [1] was 4.8.
With `COc1ccc(CCN2CCC[C@@H]2CN(C(=O)Nc2ccccc2)[C@@H](CNC(=O)Nc2ccccc2)CC2CCCCC2)cc1` [TPI1396-34] the “toxicity to normal bone marrow cells” value [2] was “little toxicity”, the EC50 [1] was 33 µM and the apoptosis ([3]; HeLa expressing XIAP mutant with mutated SMAC-binding pocket) was “not protected”. The apoptosis ([3]; HeLa expressing mutant of only the BIR2 domain) was “not protected”, the apoptosis ([3]; HeLa expressing the BIR3 domain) was “protected” and the apoptosis ([3]; HeLa over-expressing Bcl-XL) was “not blocked”. The apoptosis ([3]; HeLa over-expressing full-length XIAP) was “protected”, the apoptosis ([3]; HeLa transfected with control vector) was “induced apoptosis” and the “effect of XIAP over-expression on apoptosis induction” value [4] was “resistant”.
In the case of `COc1cc([C@@H]2c3cc4c(cc3[C@@H](O[C@@H]3O[C@@H]5CO[C@@H](C)O[C@H]5[C@H](O)[C@H]3O)[C@H]3COC(=O)[C@H]23)OCO4)cc(OC)c1O` [VP-16, etoposide], the “effect on viability of ALVA31 cells, agent alone” value [5] is reported as “essentially no effect”.
In the case of “(D-Nal)-(D-pClPhe)-(L-pClPhe)-(Lys-εFmoc) ([d2Nal][dPhe(4-Cl)][Phe(4-Cl)]K(Fmoc)) [TPI792-9]”, the “LC (lowest concentration with a ratio of 2 or higher in the derepression assay)” value [6] is reported as 10 µg/mL.
For “(D-Nal)-(L-Nal)-(D-Lys-εFmoc)-(Lys-εFmoc) ([d2Nal][2Nal][dK](Fmoc)K(Fmoc)) [TPI792-17]”, the “LC (lowest concentration with a ratio of 2 or higher in the derepression assay)” value [6] was 2 µg/mL.
With “(D-Nal)-(L-Nal)-(L-pClPhe)-(Lys-εFmoc) ([d2Nal][2Nal][Phe(4-Cl)]K(Fmoc); also: 4: D-Lys-εFmoc in Table V) [TPI792-15]” the “LC (lowest concentration with a ratio of 2 or higher in the derepression assay)” value [6] was 2 µg/mL.
With “(D-Nal)-(Lys-εFmoc)-(L-pClPhe)-(Lys-εFmoc) ([d2Nal]K(Fmoc)[Phe(4-Cl)]K(Fmoc); not fully specified; printed as (D-Nal)-(Lys-εFmoc)-(L-pClPhe)-(Lys-εFmoc)) [TPI792-3]” the “LC (lowest concentration with a ratio of 2 or higher in the derepression assay)” value [6] was 2 µg/mL.
In the case of “(L-ThiAla)-(D-pClPhe)-(L-pClPhe)-(Lys-εFmoc) ([2Thi][dPhe(4-Cl)][Phe(4-Cl)]K(Fmoc)) [TPI792-27]”, the “LC (lowest concentration with a ratio of 2 or higher in the derepression assay)” value [6] is reported as 2 µg/mL.
In the case of “(L-ThiAla)-(Lys-εFmoc)-(D-Nal)-(Lys-εFmoc) ([2Thi]K(Fmoc)[d2Nal]K(Fmoc)) [TPI792-19]”, the “LC (lowest concentration with a ratio of 2 or higher in the derepression assay)” value [6] is reported as 2 µg/mL.
With “(L-ThiAla)-(Lys-εFmoc)-(L-pClPhe)-(pF-D-F) ([2Thi]K(Fmoc)[Phe(4-Cl)][dPhe(4-F)]) [TPI792-22]” the “LC (lowest concentration with a ratio of 2 or higher in the derepression assay)” value [6] was 2 µg/mL.
In the case of “H-AVPIAQK-NH2 [SMAC, H-Ala-Val-Pro-Ile-Ala-Gln-Lys-NH2]”, the percent nonviable cells at 20 hours, 50 µM ([7]; 50 μM) is reported as ~16% and the percent nonviable cells at 20 hours, 100 µM ([7]; 100 μM) is reported as 15%.
For “cIAP2: cellular IAP protein, human inhibitor of apoptosis protein”, the Ki [8] is listed as 0.0002 to 0.01 µM.

— patent US20050159359A1, “Methods and compositions for derepression of IAP-inhibited caspase” (The Burnham Institute, priority 2001, published 2005)
